Results taken from the supplement of paper PMC10307832.

Columns and labels:
Assay in all cases: relative viability (nuclei count vs DMSO), 5 days (fraction); higher = more cells survive
Dabrafenib + Navitoclax = compound: CC(C)(C)c1nc(-c2cccc(NS(=O)(=O)c3c(F)cccc3F)c2F)c(-c2ccnc(N)n2)s1 [Dabrafenib] + CC1(C)CCC(c2ccc(Cl)cc2)=C(CN2CCN(c3ccc(C(=O)NS(=O)(=O)c4ccc(N[C@H](CCN5CCOCC5)CSc5ccccc5)c(S(=O)(=O)C(F)(F)F)c4)cc3)CC2)C1 [Navitoclax] (partner 0.5 µM)
Method in brief: (§1)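 Relative viability was taken as the ratio of nuclei in treated wells to nuclei in vehicle wells. Lung cancer cell lines in 1536-well plates received compounds by pin tool one day after seeding, either one drug alone or a fixed anchor-drug dose plus five library-drug doses (not always all listed) in √10 steps. Nuclei were counted on 4× images after 5 days of treatment, and values are medians of duplicate plates.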

VX-702 + Phenformin = compound: NC(=O)c1ccc(N(C(N)=O)c2c(F)cccc2F)nc1-c1ccc(F)cc1F [VX-702] + N=C(N)NC(=N)NCCc1ccccc1 [Phenformin] (partner 250 µM)
Method in brief: as §1

Dabrafenib = compound: CC(C)(C)c1nc(-c2cccc(NS(=O)(=O)c3c(F)cccc3F)c2F)c(-c2ccnc(N)n2)s1 [Dabrafenib]
Method in brief: (§2)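 Five library-drug doses spaced by √10 were pinned onto vehicle-anchored 1536-well plates of lung cancer cell lines that had been kept overnight at 37 °C. Cells went 5 days without medium change, then were fixed, permeabilised and Hoechst-stained together, imaged at 4× and counted by MetaXpress. Viability is the ratio of treated-well to vehicle-well nuclei, taken as a median over plates. Plates required control CV below 25% and at least one doubling.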

VX-702 = compound: NC(=O)c1ccc(N(C(N)=O)c2c(F)cccc2F)nc1-c1ccc(F)cc1F [VX-702]
Method in brief: as §2

Cell Line | relative viability (Dabrafenib + Navitoclax; first compound 0.003 µM) | relative viability (Dabrafenib + Navitoclax; first compound 0.009487 µM) | relative viability (Dabrafenib + Navitoclax; first compound 0.03 µM) | relative viability (Dabrafenib + Navitoclax; first compound 0.09487 µM) | relative viability (Dabrafenib + Navitoclax; first compound 0.3 µM) | relative viability (VX-702 + Phenformin; first compound 0.02 µM) | relative viability (VX-702 + Phenformin; first compound 0.2 µM) | relative viability (VX-702 + Phenformin; first compound 0.6325 µM) | relative viability (VX-702 + Phenformin; first compound 2 µM) | relative viability (Dabrafenib; 0.009487 µM) | relative viability (Dabrafenib; 0.03 µM) | relative viability (Dabrafenib; 0.09487 µM) | relative viability (Dabrafenib; 0.3 µM) | relative viability (VX-702; 0.02 µM) | relative viability (VX-702; 0.2 µM) | relative viability (VX-702; 0.6325 µM) | relative viability (VX-702; 2 µM) | relative viability (Dabrafenib; 0.003 µM)
SK-LU-1 | 0.557 | 0.789 | 0.806 | 0.709 | 0.567 | 0.636 | 0.508 | 0.524 | 0.531 | 1.03 | 0.661 | 0.681 | 0.762 | 1.15 | 1.04 | 1.1 | 1.17 | 
SK-MES-1 | 1.22 | 1.22 | 1.2 | 1.04 | 1.17 | 0.678 | 0.663 | 0.725 | 0.73 | 1.08 | 1.03 | 0.954 | 0.934 | 0.998 | 0.966 | 0.944 | 0.999 | 0.81
SW 1573 | 1.13 | 1.04 | 0.998 | 0.755 | 1.06 | 0.364 | 0.261 | 0.282 | 0.327 | 0.916 | 1.06 | 0.989 | 1.05 | 1.08 | 0.923 | 0.899 | 1.03 | 0.899
UMC-11 | 0.295 | 0.369 | 0.315 | 0.356 | 0.332 | 0.34 | 0.346 | 0.301 | 0.363 | 0.988 | 0.855 | 0.997 | 0.956 | 0.923 | 0.857 | 0.82 | 1.12 | 1.04
